# According to US6348201B2, “External composition for skin comprising sphingoglycolipid” (Kibun Food Chemifa Co., Ltd., priority 1997, dated 2002):
# System: hairless mice (Skh:hr-1)
# Assay: Test for evaluating moisturizing and skin roughness prevention effects: transcutaneous transpiration measured with a hydrograph
# Format: in vivo
# Settings: 10th day, average of five mice, relative to control (0.5% Triton X-150, 9 g/m^2/h) as 100; Triton X-150 pretreated, middle-wavelength UV 0.15 J/cm^2, samples applied once a day on rear back
# Protocol: Twenty male hairless mice of 9-week old (Skh:hr-1, Nihon SLC) were treated with 0.5% Triton X-150 (50 μl) in a circular area of 2.5 cm diameter on their rear backs. The once-a-day application was continued for 5 days. On the 6th day and thereafter, middle-wavelength UV light was irradiated at a dose of 0.15 J/cm^2 using a SE lamp (manufactured by Toshiba Medical Instruments Co., Ltd.), and Samples 1 to 5 (dissolved in 0.5% Triton X-150) listed below and control sample (0.5% Triton X-150) were applied. These procedures were followed once a day and continued up to the 10th day. Five hairless mice were subjected to each test for Samples or the control.
# After the middle-wavelength UV irradiation and the sample application were completed on the 10th day, amount of transcutaneous transpiration was measured using a hydrograph (model AMU-3: manufactured by Fauchon Co., Ltd.) to determine an average value for the five mice. Results were shown in the table below, where the values are expressed in relative values assuming the control (9 g/m^2/h) as 100.
row,Molecule,Relative transcutaneous transpiration
1,"CCCCCCCCCCCCC/C=C\C(O)C(CO)NC(=O)O[C@@H]1O[C@H](CO)[C@H](O)[C@H](O)[C@H]1O (stereo partly drawn) [Sample 5 (comparison), Galactocerebroside]",91
2,Ganglioside [Sample 4 (comparison)],89
3,Glyceroglycolipid [Sample 3 (comparison)],123
